The values that follow come from patent US8178678B2, “Bis-quaternary ammonium salts and methods for modulating neuronal nicotinic acetylcholine receptors” (University of Kentucky Research Foundation, priority 2006, dated 2012).

The target of assay [1] is T1, Rat Striatal Nicotinic Receptors ([^3H]NIC binding sites; α4β2) (Rattus norvegicus, UniProt P09483+P12390).
T1 construct: Whole brain, excluding cortex and cerebellum, was homogenized in 20 vol of ice-cold buffer; from tissue; host or cells: rat brain membranes (whole brain excluding cortex and cerebellum)
Kind of assay: Inhibition of [^3H]NIC binding. To be noted: 1 h; 100 nM analog; 3 nM [^3H]NIC; nonspecific 10 μM cytisine; rat brain membranes. The method, then:
(§1) Homogenate was centrifuged (25,000 g, 15 min, 4° C). Pellets were resuspended in 20 vol buffer and incubated at 37° C., for 10 min, cooled to 4° C. and centrifuged (25,000 g, 15 min, 4° C.). Pellets were resuspended and centrifuged using the same conditions. […] Upon use, final pellets were resuspended in 20 vol assay buffer. Samples (250 μl) contained 100-140 μg of membrane protein, 3 nM [^3H]-S-nicotine or 3 nM [^3H]-methyllycaconitine (MLA), and bis-quaternary ammonium analog (100 nM) in assay buffer containing 50 mM Tris. Control was in the absence of analog. In [^3H]-S-nicotine and [^3H]-methyllycaconitine binding assays, nonspecific binding was determined in the presence of 10 μM cytisine and 10 μM S-nicotine, respectively. Incubations proceeded for 60 min at room temperature using 96-well plates and were terminated by harvesting on Unifilter-96 GF/B filter plates presoaked in 0.5% polyethylenimine, using a Packard FilterMate harvester. After washing 5 times with 350 μl ice-cold assay buffer, filter plates were dried (60 min, 4° C.), bottom-sealed, and filled with Packard's MicroScint 20 cocktail (40 μl/well). After 60 min, filter plates were top-sealed, and radioactivity determined using a Packard TopCount. Protein concentrations were determined using the Bradford dye-binding procedure bovine serum albumin as the standard.
Specific binding in the [^3H]NIC binding assay is calculated as the difference between the total binding of 3 nM [^3H]NIC and nonspecific binding in the presence of 10 μM cold cytisine. […] Analog-induced inhibition of S-nicotine-evoked [^3H]DA release is calculated as a percent of that in the absence of the bis-quaternary ammonium analog.

Assay [2] concerns the target T2, Rat Striatal Nicotinic Receptors ([^3H]MLA binding sites; α7) (Rattus norvegicus, UniProt Q05941).
T2 construct: Whole brain, excluding cortex and cerebellum, was homogenized in 20 vol of ice-cold buffer; from tissue; host or cells: rat brain membranes (whole brain excluding cortex and cerebellum)
Briefly: Inhibition of [^3H]MLA (methyllycaconitine) binding. To be noted: 100 nM analog; [^3H]MLA; nonspecific S-nicotine; rat brain membranes; read-out: [^3H]MLA binding, % inhibition. On the procedure: as §1, with “standard. […]” for “standard.”

Assay [3] deals with nicotinic receptors mediating S-nicotine-evoked [^3H]DA release in rat striatal slices. Briefly: Inhibition of S-nicotine-evoked [^3H]dopamine release from superfused rat striatal slices. Format: cell-based. As to conditions: 1 h; 100 nM analog superfused 60 min before NIC 10 μM; rat striatal slices; read-out: [^3H]DA release, % inhibition of S-nicotine-evoked release. The method, then:
Rat striatal slices (500 μm thickness, 6-8 mg wet weight) were incubated for 30 minutes in Krebs buffer (118 mM NaCl, 4.7 mM KCl, 1.2 mM MgCl2, 1.0 mM NaH2PO4, 1.3 mM CaCl2, 11.1 mM glucose, 25 mM NaHCO3, 0.11 mM L-ascorbic acid, and 0.004 mM disodium EDTA; pH 7.4, and saturated with 95% O2/5% CO2) in a metabolic shaker at 34° C. Slices were rinsed with 15 mL of fresh buffer and incubated for an additional 30 minutes in fresh buffer containing 0.1 μM [^3H]dopamine (DA; 6 slices/3 mL). Subsequently, slices were rinsed with 15 mL of fresh buffer and transferred to a glass superfusion chamber. Slices were superfused (1.0 mL/min) for 60 minutes with Krebs buffer containing nomifensine (10 μM) and pargyline (10 μM) and maintained at 34° C., pH 7.4, with continual aeration (95% O2/5% CO2). Two five minute samples (5 mL each) were collected to determine basal outflow of [^3H]DA. The bis-quaternary ammonium analogs were added to the superfusion buffer after the collection of the second sample and remained in the buffer until 12 consecutive five minute samples were collected. Subsequently, S-nicotine (NIC; 10 μM) was added to the buffer and an additional 12 consecutive five minute samples were collected. At the end of the experiment, each slice was solubilized and the [^3H] content of the tissue determined.
Radioactivity in the superfusate and tissue samples was determined by liquid scintillation spectroscopy. Fractional release for tritium collected in each sample was divided by the total tritium present in the tissue at the time of sample collection and was expressed as a percentage of total tritium. Basal [^3H]outflow was calculated from the average of the tritium collected in the two five minute samples just before addition of the quaternary analog. The sum of the increase in collected tritium resulting from either exposure to the test compound or exposure to S-nicotine in the absence and presence of the test compound equaled total [^3H]overflow. [^3H]Overflow was calculated by subtracting the [^3H]outflow during an equivalent period of prestimulation from the values in samples collected during and after drug exposure. Inasmuch as the radiolabelled compounds were not separated and identified, the tritium collected in superfusate is referred to as either [3H]outflow or [^3H]overflow, rather than as [^3H]DA. [^3H]Overflow primarily represents [^3H]DA in the presence of nomifensine and pargyline in the superfusion buffer.
The bis-quaternary ammonium analogs were also evaluated for their ability to inhibit NIC evoked [^3H]DA release. In these experiments, the striatal slices were superfused for 60 minutes with 100 nM concentration of the quaternary analogs prior to NIC (10 μM) exposure. Antagonist activity was evaluated by comparing the NIC-evoked [^3 H]overflow in the absence and presence of the analogs. The relative order of potency of the quaternary analogs for inhibition of NIC-evoked [^3H]DA release from rat striatal slices is illustrated in Table 1.
^aData are % inhibition at 100 nM concentration of the bis-quaternary ammonium analogs for at least 1-3 independent experiments; with the exception of when a Ki value in μM is provided, in which case a full concentration effect was evaluated. Specific binding in the [^3H]NIC binding assay is calculated as the difference between the total binding of 3 nM [^3H]NIC and nonspecific binding in the presence of 10 μM cold cytisine. Specific binding for the [^3H]MLA binding assay is calculated as the difference between the total binding of […] [^3H]MLA to the receptors alone and its nonspecific binding in the presence of […] cold S-nicotine. Analog-induced inhibition of S-nicotine-evoked [^3H]DA release is calculated as a percent of that in the absence of the bis-quaternary ammonium analog.

T2 sequence (Q05941 23-502): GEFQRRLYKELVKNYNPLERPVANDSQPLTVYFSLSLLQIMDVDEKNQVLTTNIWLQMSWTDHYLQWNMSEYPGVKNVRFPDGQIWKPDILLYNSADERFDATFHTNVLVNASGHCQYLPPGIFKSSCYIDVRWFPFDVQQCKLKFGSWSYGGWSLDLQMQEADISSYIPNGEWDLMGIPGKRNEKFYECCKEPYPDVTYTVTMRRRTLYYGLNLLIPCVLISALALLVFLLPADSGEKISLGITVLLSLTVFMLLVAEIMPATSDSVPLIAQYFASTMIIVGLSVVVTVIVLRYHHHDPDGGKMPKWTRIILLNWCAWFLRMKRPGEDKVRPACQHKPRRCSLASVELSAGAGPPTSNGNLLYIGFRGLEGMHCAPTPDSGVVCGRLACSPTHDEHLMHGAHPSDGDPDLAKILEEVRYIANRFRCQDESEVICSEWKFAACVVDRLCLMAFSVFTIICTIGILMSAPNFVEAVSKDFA
T1 sequence (P09483 31-630): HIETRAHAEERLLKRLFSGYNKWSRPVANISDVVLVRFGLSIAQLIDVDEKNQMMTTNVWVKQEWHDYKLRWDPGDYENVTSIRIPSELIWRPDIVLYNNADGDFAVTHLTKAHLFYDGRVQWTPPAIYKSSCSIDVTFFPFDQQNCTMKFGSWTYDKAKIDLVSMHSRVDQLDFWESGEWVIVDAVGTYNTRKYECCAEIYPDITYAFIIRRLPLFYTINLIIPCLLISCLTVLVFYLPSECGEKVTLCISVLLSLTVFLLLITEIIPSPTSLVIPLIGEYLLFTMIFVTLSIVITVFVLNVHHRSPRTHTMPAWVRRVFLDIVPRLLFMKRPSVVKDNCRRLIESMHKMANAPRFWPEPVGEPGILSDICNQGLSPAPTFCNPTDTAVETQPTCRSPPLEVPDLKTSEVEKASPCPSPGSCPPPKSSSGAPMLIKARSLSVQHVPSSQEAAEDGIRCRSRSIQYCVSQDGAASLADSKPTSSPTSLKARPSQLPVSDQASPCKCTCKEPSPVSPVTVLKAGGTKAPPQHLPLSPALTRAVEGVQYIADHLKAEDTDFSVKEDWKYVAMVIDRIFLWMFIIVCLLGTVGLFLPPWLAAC
T1 sequence (P12390 25-500): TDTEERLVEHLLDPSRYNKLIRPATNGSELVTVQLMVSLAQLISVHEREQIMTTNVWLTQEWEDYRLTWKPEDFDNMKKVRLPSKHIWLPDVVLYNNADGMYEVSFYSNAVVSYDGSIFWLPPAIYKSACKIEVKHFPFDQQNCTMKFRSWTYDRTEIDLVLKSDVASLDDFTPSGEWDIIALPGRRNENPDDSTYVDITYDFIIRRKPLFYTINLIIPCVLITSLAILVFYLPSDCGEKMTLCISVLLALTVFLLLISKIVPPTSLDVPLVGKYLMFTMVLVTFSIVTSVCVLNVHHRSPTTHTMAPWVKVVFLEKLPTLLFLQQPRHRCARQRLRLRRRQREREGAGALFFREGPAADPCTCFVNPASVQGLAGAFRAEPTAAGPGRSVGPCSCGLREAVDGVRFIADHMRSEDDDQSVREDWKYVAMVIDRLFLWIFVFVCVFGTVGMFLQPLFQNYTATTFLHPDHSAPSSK

Take `Cc1cc[n+](CCCCCc2ccccc2CCCCC[n+]2ccc(C)cc2)cc1` [Example 36, 1,2-bis-[5-(4-methyl-pyridinium)-pentyl]-benzene dibromide]: the figures for the inhibition at 0.1 µM in assay [1], in assay [2] and in assay [3] were 0%, 3.1% and 11%, respectively.

As to `C(#Cc1cccc(C#CCCC[n+]2ccc3ccccc3c2)c1)CCC[n+]1ccc2ccccc2c1` [Example 55, 1,3-bis-(5-isoquinolinium-pent-1-ynyl)-benzene dibromide], the values for the inhibition at 0.1 µM in assay [1], in assay [2] and in assay [3] were 7.4%, 5.6% and 31%, respectively.

In the case of `Cc1cc[n+](CCCCCc2cccc(CCCCC[n+]3ccc(C)cc3C)c2)c(C)c1` [Example 65, 1,3-bis-[5-(2,4-dimethyl-pyridinium)-pentyl]-benzene dibromide], the inhibition – broadly, the drop in the measured response relative to a control, in per cent – at 0.1 µM in assay [1] is 0.5%; in assay [2], 5.6%; in assay [3] it was 26%.

With `C(#Cc1cccc(C#CCCC[n+]2ccccc2)c1)CCC[n+]1ccccc1` [Example 59, 1,3-bis-(5-pyridinium-pent-1-ynyl)-benzene dibromide], the inhibition at 0.1 µM in assay [1] was 3.6%; in assay [2] it was 4.4%; in assay [3] it was 12%.

As for `Cc1cc(C)c[n+](CCC#Cc2ccc(C#CCC[n+]3cc(C)cc(C)c3)cc2)c1` [Example 101, N,N′-[(1,4-phenylene)-bis-(4-butynyl)]-bis-(3,5-dimethyl-pyridinium)dibromide], the inhibition at 0.1 µM amounted to 0% in assay [1], 0% in assay [2] and 14% in assay [3].

As for `CN1CCCC1c1ccc[n+](CCCCCc2ccccc2CCCCC[n+]2cccc([C@@H]3CCCN3C)c2)c1` (stereo partly drawn) [Example 42, 1,2-bis-[5-(2′-S-nicotinium-pentyl)]benzene dibromide], the inhibition at 0.1 µM in assay [1] worked out at 71%; in assay [2], 11%; in assay [3], 59%.

Take `Cc1cc(C)c[n+](CCCCCc2ccccc2CCCCC[n+]2cc(C)cc(C)c2)c1` [Example 39, 1,2-bis-[5-(3,5-dimethyl-pyridinium)-pentyl]-benzene dibromide]: the values for the inhibition at 0.1 µM in assay [1], in assay [2] and in assay [3] were 0.7%, 0% and 47%, respectively.

Consider `Cc1cc[n+](CCCC#Cc2cccc(C#CCCC[n+]3ccc(C)cc3C)c2)c(C)c1` [Example 51, 1,3-bis-[5-(2,4-dimethyl-pyridinium)-pent-1-ynyl]-benzene dibromide], for which the values for the inhibition at 0.1 µM in assay [1], in assay [2] and in assay [3] were 7%, 5.5% and 0%, respectively.

Turning to `Cc1cccc[n+]1CCCC#Cc1cccc(C#CCCC[n+]2ccccc2C)c1` [Example 48, 1,3-bis-[5-(2-methyl-pyridinium)-pent-1-ynyl]-benzene dibromide], the figures for the inhibition at 0.1 µM in assay [1], in assay [2] and in assay [3] were 1.9%, 0% and 35%, respectively.

Consider `Cc1cc(C)c[n+](CCCC#Cc2cccc(C#CCCC[n+]3cc(C)cc(C)c3)c2)c1` [Example 53, 1,3-bis-[5-(3,5-dimethyl-pyridinium)-pent-1-ynyl]-benzene dibromide], for which the inhibition at 0.1 µM in assay [1] stood at 0%; in assay [2] it was 1.3%; in assay [3], 4%.

With `c1ccc(CCCCC[n+]2ccc3ccccc3c2)c(CCCCC[n+]2ccc3ccccc3c2)c1` [Example 41, 1,2-bis-(5-isoquinolinium-pentyl)-benzene dibromide], the inhibition at 0.1 µM was determined as 1.9% in assay [1], 0% in assay [2] and 54% in assay [3].

On to `c1cc[n+](CCCCCc2ccccc2CCCCC[n+]2ccccc2)cc1` [Example 45, 1,2-bis-(5-pyridinium-pentyl)-benzene dibromide], for which the inhibition at 0.1 µM in assay [1] came out at 3.3%; in assay [2], 1.9%; in assay [3], 37%.

In the case of `Cc1cccc[n+]1CCCC#Cc1ccccc1C#CCCC[n+]1ccccc1C` [Example 23, 1,2-bis-[5-(2-methyl-pyridinium)-pent-1-ynyl]-benzene dibromide], the inhibition at 0.1 µM in assay [1] amounted to 2.1%; in assay [2] it was 1.2%; in assay [3], 25%.

`OCCCc1ccc[n+](CCCCc2ccc(CCCC[n+]3cccc(CCCO)c3)cc2)c1` [Example 17, N,N′-[1,4-phenylenedi-(4-butanyl)]-bis-[3-(3-hydroxy-propyl)-pyridinium]dibromide]: the figures for the inhibition at 0.1 µM in assay [1], in assay [2] and in assay [3] were 0%, 3% and 40%, respectively.

As for `Cc1cc[n+](CCCC#Cc2cccc(C#CCCC[n+]3ccc(C)c(C)c3)c2)cc1C` [Example 52, 1,3-bis-[5-(3,4-dimethyl-pyridinium)-pent-1-ynyl]-benzene dibromide], the inhibition at 0.1 µM stood at 11% in assay [1], 3.3% in assay [2] and 11% in assay [3].

As to `C(#Cc1cccc(C#CCCC[n+]2cccc3ccccc32)c1)CCC[n+]1cccc2ccccc21` [Example 54, 1,3-bis-(5-quinolinium-pent-1-ynyl)-benzene dibromide], the inhibition at 0.1 µM in assay [1] was 16%; in assay [2], 3.9%; in assay [3], 17%.
